Results taken from the supplement of paper PMC10307832.

Tests used:
Experiment in all cases: relative viability (nuclei count vs DMSO), 5 days (fraction); higher = more cells survive
[1] = compound: COc1cc2ncn(-c3cc(OCc4ccccc4C(F)(F)F)c(C(N)=O)s3)c2cc1OC + Nc1ncn([C@H]2C[C@H](O)[C@@H](CO)O2)c(=O)n1 [Decitabine] (partner 2 µM)
Method in brief: (§1)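 Lung cancer cell lines were pin-tool dosed in 1536-well plates on the day after seeding, with either a lone drug or a fixed anchor-drug dose plus five library-drug doses (not always all listed) in √10 steps. Nuclei were counted on 4× images after 5 days. Relative viability is the ratio of treated-well to vehicle-well nuclei counts, with each value a median of duplicate plates.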

[2] = compound: COc1cc2ncn(-c3cc(OCc4ccccc4C(F)(F)F)c(C(N)=O)s3)c2cc1OC + C[C@@H](Oc1cc(-c2cnn(C3CCNCC3)c2)cnc1N)c1c(Cl)ccc(F)c1Cl [Crizotinib] (partner 1 µM)
Method in brief: as §1

[3] = compound: COc1cc2ncn(-c3cc(OCc4ccccc4C(F)(F)F)c(C(N)=O)s3)c2cc1OC + N=C(N)NC(=N)NCCc1ccccc1 [Phenformin] (partner 250 µM)
Method in brief: as §1

[4] = compound: COc1cc2ncn(-c3cc(OCc4ccccc4C(F)(F)F)c(C(N)=O)s3)c2cc1OC + CC1(C)CCC(c2ccc(Cl)cc2)=C(CN2CCN(c3ccc(C(=O)NS(=O)(=O)c4ccc(N[C@H](CCN5CCOCC5)CSc5ccccc5)c(S(=O)(=O)C(F)(F)F)c4)cc3)CC2)C1 [Navitoclax] (partner 0.5 µM)
Method in brief: as §1

Cell Line	relative viability ([1]; first compound 0.05 µM)	relative viability ([1]; first compound 0.1581 µM)	relative viability ([1]; first compound 0.5 µM)	relative viability ([1]; first compound 1.581 µM)	relative viability ([1]; first compound 5 µM)	relative viability ([2]; first compound 0.05 µM)	relative viability ([2]; first compound 0.1581 µM)	relative viability ([2]; first compound 0.5 µM)	relative viability ([2]; first compound 1.581 µM)	relative viability ([2]; first compound 5 µM)	relative viability ([3]; first compound 0.05 µM)	relative viability ([3]; first compound 0.1581 µM)	relative viability ([3]; first compound 0.5 µM)	relative viability ([3]; first compound 1.581 µM)	relative viability ([3]; first compound 5 µM)	relative viability ([4]; first compound 0.05 µM)	relative viability ([4]; first compound 0.1581 µM)	relative viability ([4]; first compound 0.5 µM)	relative viability ([4]; first compound 1.581 µM)	relative viability ([4]; first compound 5 µM)
HCC-366	0.255	0.372	0.326	0.0359	0.0203	0.788	0.545	0.117	0.013	0.0129	0.612	0.534	0.301	0.0215	0.0222	1.03	1.03	0.313	0.0106	0.0086
HCC-827	0.344	0.346	0.328	0.234	0.28	0.925	0.871	0.698	0.341	0.287	0.468	0.426	0.33	0.22	0.181	0.988	0.99	0.874	0.287	0.201
HOP-62	0.227	0.266	0.237	0.186	0.141	0.765	0.935	0.824	0.206	0.101	0.67	0.664	0.53	0.15	0.108	0.92	0.984	0.843	0.232	0.814
LC-2-ad	0.824	0.761	0.63	0.203	0.2	0.485	0.422	0.295	0.212	0.287	0.527	0.578	0.313	0.274	0.316	0.359	0.209	0.0767	0.0906	0.0667
LCLC-97TM1	0.246	0.238	0.196	0.139	0.114	0.419	0.331	0.165	0.152	0.145	0.398	0.492	0.353	0.154	0.148	0.4	0.502	0.307	0.141	0.0841
LK-2	0.271	0.236	0.133	0.131	0.0977	0.247	0.247	0.245	0.209	0.204	0.423	0.445	0.23	0.187	0.106	0.867	0.732	0.266	0.117	0.133
LOU-NH91	0.841	0.84	0.761	0.513	0.344	0.772	0.779	0.626	0.483	0.459	0.734	0.855	0.526	0.297	0.432	0.715	0.816	0.592	0.445	0.399
LU99A	0.767	0.825	0.604	0.194	0.191	0.59	0.526	0.579	0.244	0.197	1.01	0.865	0.723	0.241	0.174	0.87	0.786	0.434	0.169	0.124
LXF-289	0.434	0.363	0.274	0.129	0.108	0.8	0.615	0.453	0.147	0.0723	0.437	0.466	0.256	0.0678	0.0402	0.852	0.72	0.192	0.104	0.0566
NCI-H23	0.296	0.281	0.176	0.191	0.151	0.754	0.362	0.258	0.127	0.121	0.798	0.821	0.433	0.129	0.125	0.913	0.773	0.284	0.157	0.103
NCI-H322M	0.676	0.73	0.581	0.446	0.415	0.741	0.94	0.724	0.419	0.466	0.739	0.869	0.631	0.363	0.303	1.24	1.1	0.863	0.549	0.629
NCI-H441	0.229	0.243	0.18	0.137	0.164	0.634	0.617	0.287	0.152	0.218	0.837	0.636	0.196	0.196	0.227	0.623	0.405	0.233	0.151	0.164
NCI-H460	0.495	0.15	0.257	0.0216	0.0165	1.14	0.899	0.0648	0.0097	0.0254	0.476	0.49	0.0454	0.0127	0.0125	1.01	0.917	0.144	0.0132	0.0107
NCI-H520	0.482	0.525	0.261	0.217	0.219	0.984	0.513	0.19	0.148	0.16	0.598	0.642	0.269	0.266	0.211	1.04	1.18	0.454	0.201	0.162
NCI-H596	1.6	1.13	0.935	0.817	0.425	0.959	0.965	0.991	0.814	0.401	0.81	0.811	0.466	0.397	0.275	0.782	0.869	0.58	0.262	0.16
NCI-H647	0.381	0.275	0.168	0.131	0.107	1.01	0.788	0.224	0.113	0.108	0.537	0.509	0.101	0.0685	0.069	1.17	1.08	0.245	0.0619	0.0475
